# Paper PMC12399242 (Acta Pharmaceutica Sinica. B, 2025)
# Like-named read-outs stand apart in the source and are kept apart here.
# Tests used:
# [1] = test system: HIV-1 L100I; experiment: Antiviral activity against HIV-1 mutant L100I in MT-4 cells; assay type: cell-based; details: Human immunodeficiency virus 1, MT4, read-out: EC50 L100I
# [2] = test system: HIV-1 K103N; experiment: Antiviral activity against HIV-1 mutant K103N in MT-4 cells; assay type: cell-based; details: Human immunodeficiency virus 1, MT4, read-out: EC50 K103N
# [3] = test system: HIV-1 Y181C; experiment: Antiviral activity against HIV-1 mutant Y181C in MT-4 cells; assay type: cell-based
# [4] = test system: HIV-1 E138K; experiment: Antiviral activity against HIV-1 mutant E138K in MT-4 cells; assay type: cell-based; details: Human immunodeficiency virus 1, MT4, read-out: EC50 E138K
# [5] = test system: HIV-1 Y188L; experiment: Antiviral activity against HIV-1 mutant Y188L in MT-4 cells; assay type: cell-based; details: Human immunodeficiency virus 1, MT4, read-out: EC50 Y188L
# [6] = test system: HIV-1 F227L + V106A; experiment: microbe, parasite or virus in culture; assay type: cell-based; details: Human immunodeficiency virus 1, MT4, read-out: EC50 F227L + V106A
# [7] = test system: HIV-1 K103N + Y181C (RES056); experiment: Antiviral activity against HIV-1 double mutant K103N + Y181C (RES056) in MT-4 cells; assay type: cell-based; details: Human immunodeficiency virus 1, MT4, read-out: EC50 K103N + Y181C
# [8] = Human liver microsomal stability assay; assay type: in vitro ADME
# Protocol: A mixed system of human liver microsomes (0.5 mg/mL), MgCl2 (3 mmol/L), tested compound (1.0 μmol/L), and NADPH (1.0 mmol/L) in PBS (0.1 mol/L) was incubated at 37 °C. After 0, 5, 15, 30, 45, and 60 min, aliquots were sampled respectively and then terminated by adding methanol containing internal standard. After centrifugation using a Thermo Scientific Fresco 17 microcentrifuge (4 °C, 3800 rpm, 15 min), the supernatant was removed for LC‒MS/MS analysis.
# [9] = target: T1, CYP1A2 (Homo sapiens, UniProt P05177); experiment: CYP enzyme inhibition assay, CYP1A2; assay type: in vitro ADME; details: human liver microsomes
# T1 construct: An incubation system of human liver microsomes (20 μL, 1.5 mg/mL); from tissue; host or cells: human liver microsomes
# T1 sequence (P05177 whole entry): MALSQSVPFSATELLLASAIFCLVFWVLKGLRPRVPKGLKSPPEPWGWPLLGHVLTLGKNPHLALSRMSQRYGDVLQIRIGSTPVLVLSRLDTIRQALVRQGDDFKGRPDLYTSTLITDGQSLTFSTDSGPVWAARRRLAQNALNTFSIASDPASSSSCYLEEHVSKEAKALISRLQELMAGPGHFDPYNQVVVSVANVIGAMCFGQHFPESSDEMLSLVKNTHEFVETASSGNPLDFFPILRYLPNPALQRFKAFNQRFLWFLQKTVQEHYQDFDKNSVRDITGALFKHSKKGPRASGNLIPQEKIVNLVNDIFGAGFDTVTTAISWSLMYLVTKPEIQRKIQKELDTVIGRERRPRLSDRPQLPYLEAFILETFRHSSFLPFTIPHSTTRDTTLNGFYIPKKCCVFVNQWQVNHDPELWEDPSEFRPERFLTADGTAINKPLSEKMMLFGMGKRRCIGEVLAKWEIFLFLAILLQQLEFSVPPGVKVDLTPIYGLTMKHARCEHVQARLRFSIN
# Protocol: (§1) An incubation system of human liver microsomes (20 μL, 1.5 mg/mL), 20 μL probe substrates, and 50 μL test compound in Tris (0.1 mol/L) was pre-incubated at 37 °C for 10 min, and then initiated by adding NADPH (10 μL, 10 mmol/L). […] Finally, the sample was centrifugated to obtain the supernatant for LC‒MS/MS analysis.
# [10] = target: T2, CYP2C9 (Homo sapiens, UniProt P11712); experiment: CYP enzyme inhibition assay, CYP2C9; assay type: in vitro ADME; details: human liver microsomes
# T2 construct: An incubation system of human liver microsomes (20 μL, 1.5 mg/mL); from tissue; host or cells: human liver microsomes
# T2 sequence (P11712 whole entry): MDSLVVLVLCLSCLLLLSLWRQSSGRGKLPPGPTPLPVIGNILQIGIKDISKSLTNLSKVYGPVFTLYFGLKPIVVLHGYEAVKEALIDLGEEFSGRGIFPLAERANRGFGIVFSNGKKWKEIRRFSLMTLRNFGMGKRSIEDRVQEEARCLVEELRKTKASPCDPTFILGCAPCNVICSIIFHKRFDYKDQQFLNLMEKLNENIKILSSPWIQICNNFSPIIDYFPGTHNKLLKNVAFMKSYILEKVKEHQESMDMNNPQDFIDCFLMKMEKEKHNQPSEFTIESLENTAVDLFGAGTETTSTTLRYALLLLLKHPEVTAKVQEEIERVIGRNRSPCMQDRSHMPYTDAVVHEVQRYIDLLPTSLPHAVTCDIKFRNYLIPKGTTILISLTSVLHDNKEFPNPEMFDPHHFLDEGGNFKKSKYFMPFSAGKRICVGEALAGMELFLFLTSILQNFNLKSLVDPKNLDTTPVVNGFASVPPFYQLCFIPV
# Protocol: as §1
# [11] = target: T3, CYP2D6 (Homo sapiens, UniProt P10635); experiment: CYP enzyme inhibition assay, CYP2D6; assay type: in vitro ADME; details: human liver microsomes; read-out: IC50 CYP2D6
# T3 construct: An incubation system of human liver microsomes (20 μL, 1.5 mg/mL); from tissue; host or cells: human liver microsomes
# T3 sequence (P10635 whole entry): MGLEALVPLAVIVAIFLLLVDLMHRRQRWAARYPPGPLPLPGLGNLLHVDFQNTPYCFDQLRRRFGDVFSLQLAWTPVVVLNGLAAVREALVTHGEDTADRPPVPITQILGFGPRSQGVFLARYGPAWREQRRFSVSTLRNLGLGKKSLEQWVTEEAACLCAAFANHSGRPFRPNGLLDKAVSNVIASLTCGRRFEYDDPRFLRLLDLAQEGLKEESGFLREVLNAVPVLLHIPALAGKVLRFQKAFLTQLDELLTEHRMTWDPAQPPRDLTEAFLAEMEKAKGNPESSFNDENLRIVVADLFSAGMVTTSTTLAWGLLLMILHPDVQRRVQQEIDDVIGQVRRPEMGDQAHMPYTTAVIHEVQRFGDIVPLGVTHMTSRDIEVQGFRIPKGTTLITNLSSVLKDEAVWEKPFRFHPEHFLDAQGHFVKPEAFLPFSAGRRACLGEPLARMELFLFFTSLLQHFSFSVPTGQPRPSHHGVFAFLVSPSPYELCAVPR
# Protocol: (§2) An incubation system of human liver microsomes (20 μL, 1.5 mg/mL), 20 μL probe substrates, and 50 μL test compound in Tris (0.1 mol/L) was pre-incubated at 37 °C for 10 min, and then initiated by adding NADPH (10 μL, 10 mmol/L). The system was incubated for another 15 min and subsequently terminated by 100 μL MeCN containing internal standard (propranolol, nadolol). Finally, the sample was centrifugated to obtain the supernatant for LC‒MS/MS analysis.
# [12] = target: T4, CYP3A4-T (Homo sapiens, UniProt P08684); experiment: CYP enzyme inhibition assay, CYP3A4-T; assay type: in vitro ADME; details: human liver microsomes
# T4 construct: An incubation system of human liver microsomes (20 μL, 1.5 mg/mL); from tissue; host or cells: human liver microsomes
# T4 sequence (P08684 whole entry): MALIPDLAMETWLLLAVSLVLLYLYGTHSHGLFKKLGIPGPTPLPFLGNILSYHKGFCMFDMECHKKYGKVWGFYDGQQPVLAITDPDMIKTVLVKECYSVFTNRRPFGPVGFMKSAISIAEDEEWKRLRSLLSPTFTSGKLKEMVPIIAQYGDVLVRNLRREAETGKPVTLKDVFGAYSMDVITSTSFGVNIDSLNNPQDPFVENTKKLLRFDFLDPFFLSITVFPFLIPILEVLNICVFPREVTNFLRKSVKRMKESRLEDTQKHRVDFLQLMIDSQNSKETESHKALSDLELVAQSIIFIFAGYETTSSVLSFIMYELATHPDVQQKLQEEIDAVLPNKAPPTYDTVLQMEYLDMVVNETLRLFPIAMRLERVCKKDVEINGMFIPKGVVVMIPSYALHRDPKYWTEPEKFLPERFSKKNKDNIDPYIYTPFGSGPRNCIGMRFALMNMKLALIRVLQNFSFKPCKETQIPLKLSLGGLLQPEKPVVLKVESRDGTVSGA
# Protocol: as §2
# [13] = target: T5, hERG channel (Homo sapiens, UniProt Q12809); experiment: hERG inhibition assay (QPatch, CHO-hERG cells); assay type: cell-based; details: automated QPatch, n = 3
# T5 construct: expressed in transfected cells; host or cells: CHO-hERG cells
# T5 sequence (Q12809 whole entry): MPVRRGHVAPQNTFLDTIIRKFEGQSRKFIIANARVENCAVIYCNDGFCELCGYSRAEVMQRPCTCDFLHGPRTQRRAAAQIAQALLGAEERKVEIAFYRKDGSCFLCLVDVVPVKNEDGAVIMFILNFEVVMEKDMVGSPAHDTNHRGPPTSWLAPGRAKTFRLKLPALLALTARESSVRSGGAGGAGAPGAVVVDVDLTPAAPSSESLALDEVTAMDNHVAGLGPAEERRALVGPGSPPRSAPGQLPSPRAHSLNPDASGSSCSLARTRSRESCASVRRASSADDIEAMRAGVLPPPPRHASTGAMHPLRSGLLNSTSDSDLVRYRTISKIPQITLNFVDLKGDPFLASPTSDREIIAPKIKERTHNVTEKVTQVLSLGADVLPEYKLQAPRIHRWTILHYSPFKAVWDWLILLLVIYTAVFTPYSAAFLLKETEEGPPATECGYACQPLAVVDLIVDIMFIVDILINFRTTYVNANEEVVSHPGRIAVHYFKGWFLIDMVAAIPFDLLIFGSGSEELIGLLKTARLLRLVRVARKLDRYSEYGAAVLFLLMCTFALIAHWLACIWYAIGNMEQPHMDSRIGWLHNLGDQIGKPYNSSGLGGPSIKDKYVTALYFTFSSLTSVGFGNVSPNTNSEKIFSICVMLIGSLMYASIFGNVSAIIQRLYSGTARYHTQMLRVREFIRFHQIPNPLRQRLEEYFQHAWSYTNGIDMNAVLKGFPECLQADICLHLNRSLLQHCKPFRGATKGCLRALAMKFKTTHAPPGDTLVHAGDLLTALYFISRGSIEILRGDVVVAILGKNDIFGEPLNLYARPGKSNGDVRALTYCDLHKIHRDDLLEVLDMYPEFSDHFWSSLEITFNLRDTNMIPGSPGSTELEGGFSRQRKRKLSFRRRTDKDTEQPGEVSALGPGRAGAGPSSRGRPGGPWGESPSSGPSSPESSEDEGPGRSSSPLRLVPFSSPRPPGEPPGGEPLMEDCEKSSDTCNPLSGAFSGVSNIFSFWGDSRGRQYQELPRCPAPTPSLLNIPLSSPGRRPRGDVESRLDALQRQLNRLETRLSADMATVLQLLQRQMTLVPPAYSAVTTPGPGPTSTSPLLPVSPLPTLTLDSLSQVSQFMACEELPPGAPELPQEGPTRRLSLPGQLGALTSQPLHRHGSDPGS
# Protocol: CHO-hERG cells were cultured under the condition of 37 °C and 5% CO2. The culture medium was removed when the cell density grew to 60%–80%. Then, the cells were washed (PBS, 7 mL) and digested. After completion, culture medium (7 mL) was added for neutralization and then centrifuged to obtain the cells, which were subsequently resuspended into 5 mL of culture medium for automated Qpatch assays. The electrophysiology process was recorded using the QPatch instrument. The cells were clamped at an equilibrium potential of −80 mV. Voltage stimulation was conducted every 15 s, which concludes a 5 s, +40 mV depolarizing pulse and a 5 s, −50 mV repolarizing pulse. After 2 min of recording, extracellular fluid was given and recorded for 5 min. […] Each concentration was evaluated on 3 cells (n = 3).
# [14] = PK study in SD rats; assay type: in vivo; details: male, Sprague-Dawley, plasma, SD rat; for half-life: mean ± SD, n = 3; for MRT last: read-out: MRT0–t; for MRT inf: read-out: MRT0–∞
# Protocol: All animal treatments were conducted using an approved protocol of Fudan University (2020CHEM-JS-009). A12 was dissolved in a mixture of DMSO/Solutol HS 15/normal saline (10/10/80, v/v/v). Six Sprague–Dawley rats (male, 180−220 g) were assigned into two groups (n = 3) randomly to receive i.v. (1 mg/kg) or p.o. administration (10 mg/kg) of A12. At the time points of 5, 15, 30 min, 1, 2, 4, 6, 8, 10, 12, and 24 h, blood samples were collected and centrifuged (4 °C, 4500 rpm, 10 min) to obtain plasma. Before LC‒MS/MS analysis, the plasma needs to be stored at −80 °C. Subsequently, 120 μL of MeCN containing internal standard was added to 30 μL of plasma. The mixture was shaken and centrifuged (4 °C, 10,000 rpm, 15 min) to afford the supernatant layer for LC‒MS/MS analysis. Finally, The WinNolin software was applied to calculate the pharmacokinetic parameters.
# [15] = test system: HIV-1 mutant strains; experiment: Antiviral activity against panel of HIV-1 mutant strains (summary ranges); assay type: cell-based
# [16] = target: WT HIV-1 RT (Human immunodeficiency virus type 1 group M subtype B, UniProt P03366); experiment: Inhibition of WT HIV-1 RT polymerase activity
# Protocol: The anti-HIV-1 activity of A1–A24 and B1–B22 at the cellular or enzyme level were evaluated following our previously reported method[15].
# [17] = target: CYP3A4-M (Homo sapiens, UniProt P08684); experiment: CYP enzyme inhibition assay, CYP3A4-M; assay type: in vitro ADME; design: An incubation system of human liver microsomes (20 μL, 1.5 mg/mL); from tissue; host or cells: human liver microsomes; details: human liver microsomes
# CYP3A4-M, sequence (P08684 whole entry): as the sequence (P08684 whole entry) above
# Protocol: as §1
smiles,measurement,setting,value
"Cc1cc(-c2ccc(C#N)cc2)cc(C)c1Nc1nc(Nc2ccc(C#N)cc2)ncc1F [A12, 4′-((2-((4-Cyanophenyl)amino)-5-fluoropyrimidin-4-yl)amino)-3′,5′-dimethyl-[1,1′-biphenyl]-4-carbonitrile]",EC50,[1],3 ± 0.5 nM
same,EC50,[2],1.7 ± 0.5 nM
same,EC50,"[3]; Human immunodeficiency virus 1, MT4, read-out: EC50 Y181C",7.1 ± 1.2 nM
same,fold higher efficacy against Y181C than toward RES056,[3]; ratio of EC50 values,6.2 fold
same,EC50,[4],6 ± 0.5 nM
same,EC50,[5],60 ± 9.2 nM
same,EC50,[6],157 ± 64 nM
same,EC50,[7],44 ± 18 nM
same,half-life at 1 μmol/L,"[8]; human liver microsomes 0.5 mg/mL, 1.0 μmol/L compound",0.405 h
same,CLint scaled at 1 μmol/L,"[8]; human liver microsomes, scaled to liver",51.3 mL/min/kg
same,microsomal CLint at 1 μmol/L,"[8]; human, microsomes",57 µL/min/mg
same,IC50,[9],> 25000 nM
same,IC50,[10],6990 nM
same,IC50,[11],14500 nM
same,IC50,[12],> 25000 nM
same,IC50,[13],> 40000 nM
same,AUC(0-inf),"[14]; iv, 1.0 mg/kg i.v.",3060 ± 139 ng·h/mL
same,AUC(0-t),"[14]; iv, 1.0 mg/kg i.v.",3000 ± 142 ng·h/mL
same,Cmax,"[14]; iv, 1.0 mg/kg i.v.",2350 ± 178 ng/mL
same,Tmax,"[14]; iv, 1.0 mg/kg i.v.",0.0833 h
same,half-life,"[14]; iv, 1.0 mg/kg i.v.",5.53 ± 2.04 h
same,MRT last,"[14]; iv, 1.0 mg/kg i.v.",3.25 ± 0.575 h
same,MRT inf,"[14]; iv, 1.0 mg/kg i.v.",3.89 ± 1.03 h
same,bioavailability,"[14]; oral, 10.0 mg/kg p.o. vs 1.0 mg/kg i.v., read-out: F (oral bioavailability)",29.2 ± 6%
same,AUC(0-inf),"[14]; po, 10.0 mg/kg p.o.",8930 ± 1850 ng·h/mL
same,AUC(0-t),"[14]; po, 10.0 mg/kg p.o.",7340 ± 1890 ng·h/mL
same,Cmax,"[14]; po, 10.0 mg/kg p.o.",1390 ± 422 ng/mL
same,Tmax,"[14]; po, 10.0 mg/kg p.o.",1 h
same,half-life,"[14]; po, 10.0 mg/kg p.o.",13.6 ± 6.64 h
same,MRT last,"[14]; po, 10.0 mg/kg p.o.",6.18 ± 0.306 h
same,MRT inf,"[14]; po, 10.0 mg/kg p.o.",13.5 ± 6.49 h
same,EC50,"[15]; Human immunodeficiency virus 1, read-out: EC50 mutant strains L100I, K103N, Y181C, and E138K",1.7 to 7.1 nM
same,EC50,"[15]; Human immunodeficiency virus 1, read-out: EC50 seven mutant strains",1.7 to 157 nM
same,IC50,[16],41 ± 6.9 nM
same,IC50,[17],> 25000 nM
